Reference: patent US8552208B2, “Analogs of tetramic acid” (University of Tennesseee Research Foundation, priority 2007, dated 2013)
Read-outs that look alike come from different tables or passages of the source.

Tests used:
[1] = system: Mycobacterium tuberculosis H37 Rv; experiment: Antibacterial activity assay (MIC, broth dilution); assay type: cell-based; conditions: H37RV, 168 h; Mycobacterium tuberculosis H37 Rv; […]; read-out: MIC, TB
[2] = system: Bacillus anthracis Sterne 34F2; experiment: microbe, parasite or virus in culture; assay type: cell-based; conditions: STERNE34F2, read-out: MIC, BA
[3] = system: Bacillus subtilis ATCC 23857; experiment: Antibacterial activity assay (MIC, broth dilution); assay type: cell-based; conditions: ATCC23857; Bacillus subtilis ATCC 23857; read-out: MIC, BS
[4] = system: Streptococcus pneumoniae DAW30EC; experiment: Antibacterial activity assay (MIC, broth dilution); assay type: cell-based; conditions: Streptococcus pneumoniae DAW30EC; read-out: MIC, SPn
[5] = system: Enterococcus faecalis ATCC 33186; experiment: Antibacterial activity assay (MIC, broth dilution); assay type: cell-based; conditions: ATCC33186; Enterococcus faecalis ATCC 33186; read-out: MIC, EF
[6] = system: Methicillin Resistant Staphylococcus aureus ATCC 33591; experiment: Antibacterial activity assay (MIC, broth dilution); assay type: cell-based; conditions: ATCC 33591 / MRSA, read-out: MIC, MRSA
[7] = system: Methicillin sensitive Staphylococcus aureus 8325 ATCC 35556; experiment: Antibacterial activity assay (MIC, broth dilution); assay type: cell-based; conditions: ATCC 35556 / MSSA; Methicillin sensitive Staphylococcus aureus 8325 ATCC 35556; read-out: MIC, MSSA
[8] = system: Propionibacterium acnes ATCC 6919; experiment: Antibacterial activity assay (MIC, broth dilution); assay type: cell-based; conditions: Cutibacterium acnes, ATCC6919; Propionibacterium acnes ATCC 6919; read-out: MIC, PA
[9] = system: Streptococcus pyogenes ATCC 700294; experiment: Antibacterial activity assay (MIC, broth dilution); assay type: cell-based; conditions: ATCC700294; Streptococcus pyogenes ATCC 700294; read-out: MIC, SP
Cytotoxicity assay (MTT) = assay type: cell-based, monkey; conditions: monkey, Vero monkey kidney cells (ATCC CCL-81); Vero cells, 72 hours, MTT; read-out: IC50 (Cytotoxicity): Concentration which reduces viability of Vero kidney cells by 50%
Procedure: (§1) Cytotoxicity assays of drugs of Formula I of Example 3 and of Formula II of Example 5 were performed using the Vero monkey kidney cell line (ATCC, CCL-81). Vero cells were grown in tissue culture flasks in Dulbecco's Modified Eagle's Medium (ATCC) supplemented with 10% fetal bovine serum and maintained in a humidified incubator (37° C., 5% CO2). Cells were removed with a cell scraper, collected by centrifugation and then suspended in fresh medium at ˜10^6 cells/mL. The cell suspensions were dispensed into 96-well microtiter plates (100 μl/well) and incubated for 18 hours at 37° C. before being used for cytotoxicity assays. Test compounds were subsequently added at concentrations ranging from 400-0.024 μg/mL and 0.1% vol/vol of Triton-X 100, which causes 100% death of cells, was included as a control. After incubating cells and compounds for 72 hours in humid air (37° C., 5% CO2) the cytopathic effects of compounds were determined using the MTT Cell Proliferation Assay (ATCC, Cat No. 30-1010K). The MTT solution reagent (10 μl) was added to each well and plates incubated at 37° C. until sufficient purple color development occurred in cells (3 hours). After detergent cell lysis, the purple formazan product was measured at 570 nm in a Synergy HT Biotek microplate reader. IC50 data was obtained from dose response curves plotted from percentage activity versus log10 concentration using Graphpad prism 5.

[10] = system: Vero monkey kidney cell line (ATCC, CCL-81); experiment: Cytotoxicity assay (MTT); assay type: cell-based; conditions: IC50 divided by MIC against S. aureus 8325
Procedure: as §1

[11] = system: clinical isolates of MRSA (methicillin resistant S. aureus); assay type: cell-based
[12] = system: clinical isolates of MSSA (methicillin sensitive S. aureus); assay type: cell-based
[13] = system: MRSA (ATCC 35391) biofilm; experiment: Calgary Biofilm Device anti-biofilm activity; assay type: cell-based, Staphylococcus aureus; conditions: Staphylococcus aureus, MRSA biofilm, triplicate runs listed singly
[14] = system: S. epidermidis (RP62A) biofilm; experiment: Calgary Biofilm Device anti-biofilm activity; assay type: cell-based; conditions: Staphylococcus epidermidis, S. epidermidis biofilm, triplicate runs listed singly
[15] = system: MSSA (ATCC 25293) biofilm; experiment: Calgary Biofilm Device anti-biofilm activity; assay type: cell-based; conditions: Staphylococcus aureus, MSSA biofilm, triplicate runs listed singly
[16] = read-out: MBEC = Minimum Biofilm Eradication Concentration
[17] = read-out: MBIC = Minimum Biofilm Inhibitory Concentration

CCCCCCCCCCN1C(=O)/C(=C(/C)O)C(=O)[C@@H]1Cc1ccccc1 [Compound 13n, (S,Z)-5-benzyl-1-decyl-3-(1-hydroxyethylidene)pyrrolidine-2,4-dione]
0.2 µg/mL: MIC [2] | MIC [7] | Antibiotic MIC ([11]; isolate MRSA-8) | Antibiotic MIC ([12]; isolate MSSA-15)
1.6 µg/mL: Antibiotic MIC ([11]; isolate MRSA-1) | Antibiotic MIC ([11]; isolate MRSA-2) | Antibiotic MIC ([11]; isolate MRSA-3) | Antibiotic MIC ([12]; isolate MSSA-14)
0.4 µg/mL: MIC [3] | MIC [8] | Antibiotic MIC ([12]; isolate MSSA-19)
105.5: IC50/MIC = Selectivity (therapeutic) index [10]
0.8 µg/mL: MIC [5] | MIC [6] | Antibiotic MIC ([11]; isolate MRSA-4) | Antibiotic MIC ([11]; isolate MRSA-5) | Antibiotic MIC ([11]; isolate MRSA-6) | Antibiotic MIC ([11]; isolate MRSA-7) | Antibiotic MIC ([11]; isolate MRSA-9) | Antibiotic MIC ([11]; isolate MRSA-10) | Antibiotic MIC ([12]; isolate MSSA-11) | Antibiotic MIC ([12]; isolate MSSA-12) | Antibiotic MIC ([12]; isolate MSSA-13) | Antibiotic MIC ([12]; isolate MSSA-16) | Antibiotic MIC ([12]; isolate MSSA-17) | Antibiotic MIC ([12]; isolate MSSA-18) | Antibiotic MIC ([12]; isolate MSSA-20)
50 µg/mL: MIC [1] | MIC [9]
21.1 µg/mL: IC50 at 72 h (Cytotoxicity assay (MTT))
12.5 µg/mL: MIC [4]

CCCCCCCCCCN1C(=O)/C(=C(/C)O)C(=O)[C@@H]1C(C)C [Compound 13i, (S,Z)-1-decyl-3-(1-hydroxyethylidene)-5-isopropylpyrrolidine-2,4-dione]
6.25 µg/mL: MIC [4]
8.8: IC50/MIC = Selectivity (therapeutic) index [10]
12.5 µg/mL: MIC [1]
0.8 µg/mL: MIC [2] | MIC [5] | MIC [6] | MIC [7] | MIC [13, 17] | MIC [14, 17] | MIC [15, 17]
100 µg/mL: MBC [15, 16]
0.4 µg/mL: MIC [3] | MIC [8]
7 µg/mL: IC50 at 72 h (Cytotoxicity assay (MTT))
25 µg/mL: MIC [9] | MBC [13, 16] | MBC [14, 16]
